Experimental data published in paper PMC5306082, “Physiologically based kinetic modeling of the bioactivation of myristicin” (Archives of Toxicology, 2016).

Key:
Type in all cases: in vitro ADME
[1] = Microsomal conversion of myristicin, male rat liver microsomes
Procedure: (§1) First, it was determined which organs are involved in the biotransformation of myristicin in rat and human. For this purpose, liver, kidney, lung, and small intestine microsomes from male Sprague–Dawley rat and pooled gender human were used. Incubations were performed by adding myristicin to incubation mixtures containing 1 mg/mL of the microsomal protein preparations and 3 mM NADPH in 0.2 M Tris–HCl (pH 7.4). After 1 min of pre-incubation at 37 °C, myristicin (final concentration, 1000 μM) was added from a 100 times concentrated stock solution in DMSO so that the final DMSO content was 1 % (v/v). Incubations were carried out for 30 min after which the reactions were terminated by adding 25 µl (0.25 times the incubation volume) of ice-cold ACN. Samples were centrifuged for 5 min at 13,000×g, and the supernatant was stored at −20 °C until UPLC analysis. As metabolism of myristicin was observed only in incubations with liver microsomes for male rats and pooled gender human, the determination of kinetic constants for the formation of microsomal metabolites was performed only for the liver fractions. Incubations to determine kinetic constants were performed following the conditions described above using final concentrations of myristicin from 25 to 1000 μM for rat and human liver. In all incubations, the final concentration of DMSO, in which myristicin was dissolved, was kept at 1 % (v/v). The formation of different microsomal metabolites was linear with time and microsomal protein concentration under the conditions described. Blank incubations were performed in the absence of the cofactor NADPH. All incubations were performed in triplicate.
(§2) Secondary metabolism of the relevant 1′-hydroxy metabolite of myristicin was taken into account by determining the kinetic constants for its conversion in (a) glucuronidation, (b) sulfation, and (c) oxidation, again under conditions that allowed adequate definition of kinetic constants and with <10 % substrate conversion. Incubation samples were subjected to UPLC analysis that was performed as described previously (Punt et al. [2008]). Identification was achieved by comparing the UV spectra of the formed metabolites to the spectra of the synthesized 1′-hydroxymyristicin and 1′-oxomyristicin reference standards. Quantification of all formed metabolites was done by comparing the peak areas to those of calibration curves of the corresponding reference compounds, determined using UPLC with photodiode array detection (UPLC-PDA). The UPLC system was composed of a Waters (Waters, Milford, MA) Acquity solvent manager, sample manager, and photodiode array detector, equipped with Water Acquity UPLC BEH C18 column.
(§3) The gradient for analysis of microsomal metabolites was performed with 100 % ACN and ultrapure water containing 0.1 % (v/v) TFA. The flow rate was 0.6 ml/min. The gradient started at 10 % ACN, increased to 50 % ACN over 4 min, increased to 80 % over 0.5 min, followed by decrease to 10 % ACN over 0.5 min, and finally kept at 10 % for 1 min.

[2] = Microsomal conversion of myristicin, human liver microsomes
Procedure: as §1, §2, §3

[3] = Sulfonation of 1′-hydroxymyristicin, human liver S9; conditions: S9 protein yield 143 mg/g liver
Procedure: The formation of 1′-sulfoxymyristicin was determined using incubations containing male rat liver Sprague–Dawley or pooled gender human liver S9 proteins, PAPS as a cofactor, and GSH, which acts as a scavenger of the reactive carbocation formed due to the unstable nature of the 1′-sulfoxy metabolite in an aqueous environment (van den Berg et al. [2012]; Martati et al. [2011]; Al-Subeihi et al. [2011]). Incubation mixtures containing (final concentrations) 10 mM of GSH, 0.2 mM of PAPS, and 3 mg/ml of S9 proteins in 0.1 M potassium phosphate (pH 8.2) were pre-incubated for 1 min at 37 °C. After the pre-incubation, 1′-hydroxymyristicin dissolved in DMSO was added in final concentrations ranging between 10 and 6000 μM while keeping the final content of DMSO at 1 % (v/v). The reaction was terminated after 360 min of incubation by adding 25 μl (0.25 times the incubation volume) of ice-cold ACN. The formation of the GSH conjugate of 1′-sulfoxymyristicin was linear with time and S9 protein concentrations under the experimental conditions used. Blank incubations were performed in the absence of PAPS. Incubations were performed in triplicate. All samples were centrifuged for 5 min at 16,000×g, and the supernatant was stored at −20 °C until ultra-performance liquid chromatography (UPLC) analysis.
Quantification of 1′-sulfoxymyristicin was done using UPLC analysis as described for the estimation of 1′-sulfoxysafrole (Martati et al. [2011]). […] The gradient for analysis of the metabolite consisted of a mixture of ACN and ultrapure water containing 0.1 % (v/v) TFA. The flow rate was 0.6 ml/min, starting at 0 % ACN and increasing the percentage of ACN to 20 % over 0.2 min, followed by an increase to 30 % ACN over 4.3 min, then increasing to 100 % over 0.3 min, and keeping it at 100 % for 0.2 min, and finally decreasing to 0 % over 0.2 min and keeping it at 0 % for 0.8 min. Separation and purification of the GSH adduct of 1′-sulfoxymyristicin was performed by collecting the peak of the metabolite from the UPLC column. […]

[4] = formation of the metabolite from myristicin, NADPH, mean of three ± SD
[5] = formation of the metabolite from myristicin, Vmax/Km × 1000
[6] = from myristicin, scaled Vmax/Km

Structure (SMILES): C=CC(O)c1cc(OC)c2c(c1)OCO2 (stereo not drawn) [1′-Hydroxymyristicin, 1′-hydroxymyristicin]
- Vmax [1, 4]: 0.86 ± 0.18 nmol min^−1 (mg microsomal or S9 protein)^−1
- In vitro catalytic efficiency [1, 5]: 8.431 μl min^−1 (mg microsomal or S9 protein)^−1
- Scaled Vmax, in vivo ([1]; from myristicin, microsomal protein yield 35 mg/g liver): 1.806 μmol/h/g tissue
- In vivo catalytic efficiency [1, 6]: 0.0177 ml/h/g tissue
- Km for formation from myristicin, fold lower in rat liver than in human liver incubations ([1]; rat vs human): twofold lower
- Vmax for formation from myristicin, fold higher in rat liver than in human liver incubations ([1]; rat vs human): fivefold higher
- catalytic efficiency for formation from myristicin, fold higher in male rat liver than in human liver ([1]; scaled catalytic efficiency, rat vs human): 13 fold
- Vmax [2, 4]: 0.17 ± 0.03 nmol min^−1 (mg microsomal or S9 protein)^−1
- In vitro catalytic efficiency [2, 5]: 0.726 μl min^−1 (mg microsomal or S9 protein)^−1
- Scaled Vmax, in vivo ([2]; from myristicin, microsomal protein yield 32 mg/g liver): 0.326 μmol/h/g tissue
- In vivo catalytic efficiency [2, 6]: 0.0014 ml/h/g tissue
- k Scaled [3]: 0.14 ml/hr/g tissue
